In test [1] the test system is tumor cells and immune cells. Briefly: Cell-biological experiments on blocking of polarization of tumor cells and immune cells. The test is classed as cell-based. To be noted: general statement. An excerpt:
By means of a method of simultaneously detecting a number of cell surface proteins, it has been established that aminopeptidases will control cell surface proteins which are not part of the class of proteolytic enzymes, but belong to the class of the adhesion molecules, which adhesion molecules—in a certain combination and geometric array—will be decisive for the polarization of the cells. Consequently, aminopeptidases appear to be superordinate control proteins in a protein network consisting of up to 30 different cell surface protein species which—through specific interaction with one another—will control polarization of tumor cells and other invasive cells such as immune cells and which are listed above. The inhibition of at least one aminopeptidase will lead to a reproducible modification of surface protein combinations on the cell surface which will always also involve a modification of CD13. […] The term polarization as used here shall denote a process in which a primarily spherical cell will transition into an oblong, elongated cell shape, via various intermediate states. This process which constitutes a change of shape controlled by the complex protein network is the prerequisite for cell migration, since only cells of oblong shape are capable of migrating. The polarization process therefore needs to precede all cell migration processes, including invasion. […]

The test system of the next test is tumor cells. Conditions: in vitro, matrigel analytic system; cited from earlier work.

The text below walks through data of patent US20030130180A1, “Utilization of an aminopeptidase inhibitor” (priority 2000, published 2003).

For the compound `CCCCC[C@H](CC(=O)NO)C(=O)N[C@H](C(=O)N1CCC[C@H]1CO)C(C)C` [actinonin], the “effectiveness as aminopeptidase inhibitor blocking polarization” value in test [1] was “particularly effective”. Besides, the tumor cell invasion entry in the test on tumor cells is on record as “do not have an effect”.
